Source: patent US9314508B2, “Use of somatostatin analogs in control of hypoglycemia” (priority 2008, dated 2016)

What was measured:
[1] = test system: adult male Lewis rats fasted for 24 h; experiment: glyburide induced hypoglycemia in fasted rats, plasma glucose; assay type: in vivo, rat; conditions: for glucose −30 min / glucose 1 h / glucose 3 h / glucose 6 h / glucose −24 h: fasted animals; for glucose −30 min: 30 min before application (baseline); for glucose 1 h: 1 h after application; for glucose 3 h: 3 h after application; for glucose 6 h: 6 h after application; for glucose −24 h: 24 h before application (baseline)
Protocol: Food restriction for 24 h reduced plasma glucose concentration in all treatment groups from about 8 mmol/l to approximately 6 mmol/l. 30 min before the application of the compound (FIG. 1, Table 1).

fed rats = experiment: glyburide effect on plasma glucose in fed rats; assay type: in vivo, rat; conditions: for glucose −30 min / glucose 1 h / glucose 3 h / glucose 6 h / glucose −24 h: fed animals; for glucose −30 min: 30 min before application (baseline); for glucose 1 h: 1 h after application; for glucose 3 h: 3 h after application; for glucose 6 h: 6 h after application; for glucose −24 h: 24 h before application (baseline)
Protocol: 30 min before the application of the compound (FIG. 1, Table 1).

patients = patients with hypoglycemia receiving octreotide; cited from earlier work
[2] = Glyburide 30 mg/kg p.o. + 10 μg/kg s.c.
[3] = Glyburide 30 mg/kg p.o. + 30 μg/kg s.c.

Compound: COc1ccc(Cl)cc1C(=O)NCCc1ccc(S(=O)(=O)NC(=O)NC2CCCCC2)cc1 [Glyburide]
- glucose −30 min ([1]; Glyburide 30 mg/kg p.o. alone): 6.07 ± 0.39 mmol/L
- glucose 1 h ([1]; Glyburide 30 mg/kg p.o. alone): 5.48 ± 0.15 mmol/L
- glucose 3 h ([1]; Glyburide 30 mg/kg p.o. alone): 4.17 ± 0.16 mmol/L
- glucose 6 h ([1]; Glyburide 30 mg/kg p.o. alone): 3.53 ± 0.13 mmol/L
- glucose −24 h ([1]; Glyburide 30 mg/kg p.o. alone): 7.87 ± 0.34 mmol/L
- minimum plasma glucose level ([1]; fasted rats, Glyburide 30 mg/kg p.o. alone, 6 h after the application): 3.5 mmol/L
- glucose −30 min (fed rats; Glyburide 30 mg/kg p.o. alone): 8.72 ± 0.14 mmol/L
- glucose 1 h (fed rats; Glyburide 30 mg/kg p.o. alone): 7.42 ± 0.18 mmol/L
- glucose 3 h (fed rats; Glyburide 30 mg/kg p.o. alone): 5.33 ± 0.16 mmol/L
- glucose 6 h (fed rats; Glyburide 30 mg/kg p.o. alone): 6.27 ± 0.16 mmol/L
- glucose −24 h (fed rats; Glyburide 30 mg/kg p.o. alone): 8.65 ± 0.11 mmol/L
- hypoglycemic effect (fed rats; fed rats, glyburide alone): not very pronounced

Compound: C[C@@H](O)[C@@H]1NC(=O)[C@H](CCCCN)NC(=O)[C@@H](Cc2c[nH]c3ccccc23)NC(=O)[C@H](Cc2ccccc2)NC(=O)[C@@H](NC(=O)[C@H](N)Cc2ccccc2)CSSC[C@@H](C(=O)N[C@H](CO)[C@@H](C)O)NC1=O [octreotide]
- glucose −30 min [1, 2]: 5.75 ± 0.21 mmol/L
- glucose 1 h [1, 2]: 4.27 ± 0.07 mmol/L
- glucose 3 h [1, 2]: 4.28 ± 0.14 mmol/L
- glucose 6 h [1, 2]: 4.28 ± 0.23 mmol/L
- glucose −24 h [1, 2]: 8.53 ± 0.27 mmol/L
- glucose −30 min [1, 3]: 6.43 ± 0.49 mmol/L
- glucose 1 h [1, 3]: 4.22 ± 0.14 mmol/L
- glucose 3 h [1, 3]: 5.83 ± 0.28 mmol/L
- glucose 6 h [1, 3]: 4.83 ± 0.24 mmol/L
- glucose −24 h [1, 3]: 8.63 ± 0.19 mmol/L
- prevention of the glyburide induced hypoglycemia ([1]; fasted rats, Glyburide 30 mg/kg p.o. + 10 or 30 μg/kg s.c., after 1 h): not effective
- effect on glucose levels in glyburide treated rats ([1]; fasted rats, highest dose (30 μg/kg s.c.), after 3 and 6 h): only a small tendency to increase glucose levels
- glucose 1 h (fed rats; [2]): 7.27 ± 0.15 mmol/L
- glucose 3 h (fed rats; [2]): 5.80 ± 0.24 mmol/L
- glucose 6 h (fed rats; [2]): 6.00 ± 0.44 mmol/L
- glucose −24 h (fed rats; [2]): 8.17 ± 0.38 mmol/L
- glucose 1 h (fed rats; [3]): 7.48 ± 0.25 mmol/L
- glucose 3 h (fed rats; [3]): 5.63 ± 0.24 mmol/L
- glucose 6 h (fed rats; [3]): 6.10 ± 0.43 mmol/L
- glucose −24 h (fed rats; [3]): 8.07 + 0.43 mmol/L
- serum glucose level versus controls (patients): higher than that in controls
- time within which the effect on serum glucose waned (patients): ≤ 8 h

Compound: cyclo[{(4-(NH2—C2H4—NH—CO—O—)Pro}-Phg-DTrp-Lys-Tyr(4-Bzl)-Phe] [pasireotide]
- glucose −30 min [1, 2]: 5.88 ± 0.16 mmol/L
- glucose 1 h [1, 2]: 7.00 ± 0.42 mmol/L
- glucose 3 h [1, 2]: 6.22 ± 0.42 mmol/L
- glucose 6 h [1, 2]: 6.48 ± 0.52 mmol/L
- glucose −24 h [1, 2]: 8.07 ± 0.45 mmol/L
- glucose −30 min [1, 3]: 6.10 ± 0.23 mmol/L
- glucose 1 h [1, 3]: 6.98 ± 0.59 mmol/L
- glucose 3 h [1, 3]: 7.55 ± 0.47 mmol/L
- glucose 6 h [1, 3]: 7.58 ± 0.47 mmol/L
- glucose −24 h [1, 3]: 7.93 ± 0.52 mmol/L
- effect on plasma glucose in glyburide treated rats ([1]; fasted rats, Glyburide 30 mg/kg p.o. + 10 or 30 μg/kg s.c., 1, 3 and 6 h after the application): plasma glucose increased to levels of untreated fasted rats or above
- glucose −30 min (fed rats; [2]): 8.53 ± 0.34 mmol/L
- glucose 1 h (fed rats; [2]): 13.48 ± 0.65 mmol/L
- glucose 3 h (fed rats; [2]): 12.42 ± 0.39 mmol/L
- glucose 6 h (fed rats; [2]): 6.85 ± 0.23 mmol/L
- glucose −24 h (fed rats; [2]): 8.65 ± 0.18 mmol/L
- glucose −30 min (fed rats; [3]): 8.10 ± 0.29 mmol/L
- glucose 1 h (fed rats; [3]): 13.47 ± 0.91 mmol/L
- glucose 3 h (fed rats; [3]): 13.13 ± 0.69 mmol/L
- glucose 6 h (fed rats; [3]): 9.12 ± 0.47 mmol/L
- glucose −24 h (fed rats; [3]): 8.85 ± 0.25 mmol/L
- effect on plasma glucose (fed rats; fed rats pretreated with glyburide): significant but transit effect
